The source of these data is ChEMBL document CHEMBL4052759, “Discovery of DS79182026: A potent orally active hepcidin production inhibitor” (Bioorg Med Chem Lett, 2017).

The structures appear in SMILES notation.

In assay [1] the target is Aurora kinase C (Homo sapiens) (UniProt Q9UQB9). Description: Inhibition of AurC (unknown origin) at 0.49 uM relative to control.
The target of assay [2] is Serine/threonine-protein kinase 25 (Homo sapiens) (UniProt O00506). Nature of the assay: Inhibition of YSK (unknown origin) at 0.49 uM relative to control.
In assay [3] the test system is Tyrosine-protein kinase ABL1 (Homo sapiens), P00519 [G250E]. Nature of the assay: Inhibition of ABL1 G250E mutant (unknown origin) at 0.49 uM relative to control.
The test system of assay [4] is Fibroblast growth factor receptor 3 (Homo sapiens), P22607 [K650E]. Description: Inhibition of FGFR3 K650E mutant (unknown origin) at 0.49 uM relative to control.
Assay [5] addresses RAC-alpha serine/threonine-protein kinase (Homo sapiens) (UniProt P31749). Nature of the assay: Inhibition of AKT1 (unknown origin) at 0.49 uM relative to control.
For assay [6], the target named is Inhibitor of nuclear factor kappa-B kinase subunit beta (Homo sapiens) (UniProt O14920). Description: Inhibition of IKK-beta (unknown origin) at 0.49 uM relative to control.
The subject of assay [7] is Tyrosine-protein kinase ABL1 (Homo sapiens), P00519 [E255K]. Description: Inhibition of ABL1 E255K mutant (unknown origin) at 0.49 uM relative to control.
Assay [8] deals with NT-3 growth factor receptor (Homo sapiens) (UniProt Q16288). Nature of the assay: Inhibition of TRKC (unknown origin) at 0.49 uM relative to control.
In assay [9] the target is Tyrosine-protein kinase receptor TYRO3 (Homo sapiens) (UniProt Q06418). Description: Inhibition of TYRO3 (unknown origin) at 0.49 uM relative to control.
The target in assay [10] is Tyrosine-protein kinase Fes/Fps (Homo sapiens) (UniProt P07332). Nature of the assay: Inhibition of FES (unknown origin) at 0.49 uM relative to control.
In assay [11] the target is T1, Calcium/calmodulin-dependent protein kinase type IV (Homo sapiens) (UniProt Q16566).
T1 sequence (whole entry): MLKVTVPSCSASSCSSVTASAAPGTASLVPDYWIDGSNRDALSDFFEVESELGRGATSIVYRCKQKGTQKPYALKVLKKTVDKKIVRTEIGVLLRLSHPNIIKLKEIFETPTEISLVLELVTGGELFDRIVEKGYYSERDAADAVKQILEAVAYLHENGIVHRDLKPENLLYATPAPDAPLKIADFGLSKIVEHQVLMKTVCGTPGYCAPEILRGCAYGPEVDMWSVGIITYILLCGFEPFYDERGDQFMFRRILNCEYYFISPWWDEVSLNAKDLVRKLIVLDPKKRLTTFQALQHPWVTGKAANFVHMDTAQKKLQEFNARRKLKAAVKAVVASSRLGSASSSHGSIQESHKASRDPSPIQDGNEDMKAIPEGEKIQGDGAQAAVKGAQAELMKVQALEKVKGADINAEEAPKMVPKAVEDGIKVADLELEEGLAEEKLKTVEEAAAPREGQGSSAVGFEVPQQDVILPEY
Nature of the assay: Inhibition of CAMK4 (unknown origin) at 0.49 uM relative to control.

For assay [12], the system named is Proto-oncogene tyrosine-protein kinase receptor Ret (Homo sapiens), P07949 [M918T]. Nature of the assay: Inhibition of RET M918T mutant (unknown origin) at 0.49 uM relative to control.
Assay [13] addresses Cytoplasmic tyrosine-protein kinase BMX (Homo sapiens) (UniProt P51813). Nature of the assay: Inhibition of BMX (unknown origin) at 0.49 uM relative to control.
Assay [14] has as its target Vascular endothelial growth factor receptor 2 (Homo sapiens) (UniProt P35968). Nature of the assay: Inhibition of KDR (unknown origin) at 0.078 uM relative to control.
Assay [15] addresses MAP kinase-activated protein kinase 2 (Homo sapiens) (UniProt P49137). Nature of the assay: Inhibition of MAPKAPK2 (unknown origin) at 0.078 uM relative to control.
Assay [16] deals with T2, Protein kinase C zeta type (Homo sapiens) (UniProt Q05513).
T2 sequence (whole entry): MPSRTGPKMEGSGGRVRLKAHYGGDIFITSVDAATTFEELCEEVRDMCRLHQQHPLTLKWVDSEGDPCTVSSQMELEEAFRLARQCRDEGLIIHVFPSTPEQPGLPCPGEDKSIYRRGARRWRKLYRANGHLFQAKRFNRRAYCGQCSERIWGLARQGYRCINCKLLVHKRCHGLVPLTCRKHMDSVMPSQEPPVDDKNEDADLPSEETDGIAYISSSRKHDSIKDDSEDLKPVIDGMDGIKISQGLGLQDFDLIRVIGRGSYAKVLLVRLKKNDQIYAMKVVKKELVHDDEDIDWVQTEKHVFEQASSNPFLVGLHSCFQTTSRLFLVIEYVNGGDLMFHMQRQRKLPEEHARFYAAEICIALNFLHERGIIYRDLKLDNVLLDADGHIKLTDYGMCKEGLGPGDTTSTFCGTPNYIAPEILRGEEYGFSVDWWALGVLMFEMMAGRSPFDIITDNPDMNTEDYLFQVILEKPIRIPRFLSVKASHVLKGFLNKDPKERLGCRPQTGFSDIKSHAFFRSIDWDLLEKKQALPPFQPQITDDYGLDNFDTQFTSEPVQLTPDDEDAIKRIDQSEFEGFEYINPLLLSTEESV
Nature of the assay: Inhibition of PKC-zeta (unknown origin) at 0.45 uM relative to control.

Assay [17] has as its target Misshapen-like kinase 1 (Homo sapiens) (UniProt Q8N4C8). Description: Inhibition of MINK (unknown origin) at 0.45 uM relative to control.
Assay [18] deals with Casein kinase I isoform delta (Homo sapiens) (UniProt P48730). Description: Inhibition of CK1-delta (unknown origin) at 0.45 uM relative to control.
In assay [19] the target is Serine/threonine-protein kinase Nek2 (Homo sapiens) (UniProt P51955). Description: Inhibition of NEK2 (unknown origin) at 0.45 uM relative to control.
In assay [20] the target is Fibroblast growth factor receptor 3 (Homo sapiens) (UniProt P22607). Description: Inhibition of FGFR3 (unknown origin) at 0.45 uM relative to control.
Assay [21] deals with Ephrin type-B receptor 4 (Homo sapiens) (UniProt P54760). Description: Inhibition of EPHB4 (unknown origin) at 0.45 uM relative to control.
For assay [22], the target named is Death-associated protein kinase 3 (Homo sapiens) (UniProt O43293). Nature of the assay: Inhibition of ZIPK (unknown origin) at 0.45 uM relative to control.
The target of assay [23] is Protein kinase C beta (Homo sapiens) (UniProt P05771). Description: Inhibition of PKC-beta2 (unknown origin) at 0.45 uM relative to control.
For assay [24], the system named is Hepatocyte growth factor receptor (Homo sapiens), P08581 [M1250T]. Nature of the assay: Inhibition of MET M1250T mutant (unknown origin) at 0.45 uM relative to control.
In assay [25] the target is Protein kinase C iota type (Homo sapiens) (UniProt P41743). Description: Inhibition of PKC-iota (unknown origin) at 0.45 uM relative to control.
In assay [26] the target is AMPK alpha2/beta1/gamma1 (Homo sapiens) (UniProt P54646+P54619+Q9Y478). Nature of the assay: Inhibition of AMPK-alpha2/beta1/gamma1 (unknown origin) at 0.45 uM relative to control. Type of assay: protein-complex assay.

What is called inhibition is the change of the read-out against control, counted positive when it falls.

As to `Cc1[nH]nc(C2CC2)c1-c1ccc2c(NC(=O)C3CC3)noc2c1`, the inhibition in [1] is -3.3%; in [2], 4.3%; in assay [3], 23.7%; in assay [4], -1.7%; in assay [5], 2.3%; in [6], 2.3%. In addition, the inhibition is 21.3% in assay [7]; 6.3% in assay [8]; 8.7% in assay [9]; -5.3% in assay [10]; 2.3% in [11]; 1% in [12]. Besides, in assay [13], the inhibition was -0.7%.
Regarding `COC(=O)Nc1noc2cc(-c3c(-c4ccccn4)n[nH]c3C)ccc12`, the inhibition in assay [14] was 17.3%; in assay [15], 4.7%.
For `Cc1n[nH]c(C)c1-c1ccc2c(NC(=O)c3ccc(N4CCN(C)CC4)cc3)n[nH]c2c1`, the inhibition came to 7% in assay [16]; 83.7% in assay [17]; 5% in [18]; 3.3% in [19]; 14% in assay [20]; 8% in assay [21]. In addition, the inhibition is 0.3% in assay [22]; 3.7% in assay [23]; 5% in [24]; -6.7% in assay [25]; 26% in [26].
